According to patent publication US8871818B2, “Gastrointestinal absorption enhancer mediated by proton-coupled transporter and its preparing method” (Otsuka Pharmaceutical Co., Ltd., priority 2003, dated 2014):

Key:
[1] = test system: Caco-2 cells; assay: Cellular uptake into Caco-2 cells under various pH conditions (pH profile); assay type: in vitro ADME, human; settings: 2 mM, uptake over 15 minutes
Method: To investigate the effect of extracellular fluid on the cellular uptake of dipeptides and β-lactam antibiotics transported by PEPT1, the cellular uptake of dipeptides, i.e., [^14C]glycylsarcosine ([^14C]GlySar) and [^3H]carnosine, and β-lactam antibiotics, i.e., cefadroxil (CDX), cefixime (CFIX), and FK089, was evaluated at pH 5.0 to 7.0 using gastrointestinal tract model cells (Caco-2 cells).
Cells cultured on 4-well plates were rinsed 3 times with 1 mL Hanks' balanced salt solution (HBSS: 0.952 mM CaCl2, 5.36 mM KCl, 0.441 mM KH2PO4, 0.812 mM MgSO4, 136.7 mM NaCl, 0.385 mM Na2HPO4, 25 mM D-glucose, 10 mM HEPES; pH 7.4; osmotic pressure 315 mOs/kg) heated to 37° C., and uptake was initiated by adding 250 μL HBSS containing medical fluid. Uptake was terminated at a predetermined period of time by washing the cells 3 times with 1 mL ice-cooled HBSS. […] The medicaments contained in the solution extracted from the cells were quantified by a liquid scintillation counter or liquid chromatography (HPLC). Proteins contained in the cells were quantified using a protein assay kit (Bio-Rad, Richmond, Calif., USA) according to the Bradford assay (Bradford, M. M. “A Rapid and Sensitive Method for the Quantitation of Microgram Quantities of Protein Utilizing the Principle of Protein-Dye Binding”. Anal. Biochem. 72 (1976): 248-254). […]

[2] = test system: rat ileum; assay: Absorption in rat intestinal loop, in situ closed loop method; assay type: in vivo; settings: 20 minutes, CDX 1 mM or CFIX 0.5 mM in MES buffer pH 6.0
Method: For example, rats are anesthetized by intraperitoneally administering pentobarbital sodium (50 mg/kg). Then, laparotomy is performed along the median line to expose the intestinal tract, and a loop is formed at the ileum (e.g., FIG. 6). MES buffer containing medical fluid and a polymer (5 mM KCl, 100 mM NaCl, 10 mM 2-(N-morpholino)ethanesulfonic acid (MES), 85 mM mannitol, 0.01% polyethylene glycol; pH 6.0; osmotic pressure 290 mOs/kg) is introduced into the intestinal loop and both ends of the loop are ligated. Subsequently, the intestinal loop is immediately returned to the abdominal cavity. An incandescent lamp is used to maintain the body temperature. The solution inside the intestinal loop is retrieved 20 minutes after its administration. The pH was measured by pH-meter. The amount of medicaments are measured by HPLC.
The oral composition of the invention was prepared by adding a β-lactam antibiotic (CDX or CFIX) to 10 mM MES buffer (pH 6.0) such that the buffer contained CDX in an amount of 1 mM or CFIX in an amount of 0.5 mM, and further adding Eudragit L100-55 to the buffer so that it contained in a proportion of 10 or 20 wt. % based on the amount of the entire oral composition. A β-lactam antibiotic solution containing no Eudragit L100-55 was prepared as a control.
These compositions were administered into the intestinal loops prepared at the caecum junction of SD male rats (junction between the terminal of the ileum and where the caecum starts) to a distance of 14 cm toward the stomach. The solution remaining in the intestinal loops was retrieved 20 minutes after administration. The concentration of β-lactam antibiotic in the retrieved solution was measured by HPLC, and pH of the retrieved solution was measured using a pH meter. Absorbability was evaluated according to the decrease in the concentration of β-lactam antibiotic in the retrieved solution in comparison with the concentration thereof in the solution administered.

[3] = Plasma concentration of CFIX after oral administration to rats with polymer and/or CDX; assay type: in vivo; settings: male, SD, rat, CFIX 2.3 mg/kg, polymer 500 mg/kg
Method: To investigate whether absorption of orally-administered peptidergic compounds in rats is improved by controlling gastrointestinal pH using pH-sensitive polymers, the time course of the plasma concentration of CFIX was examined after orally administering the peptidergic compound CFIX in combination with a pH-sensitive polymer (Eudragit L100-55) or pH-insensitive polymer (Eudragit RS PO).
The oral composition of the invention was prepared by adding Eudragit L100-55 to an aqueous solution of CFIX (0.23 mg/mL) such that the solution contained Eudragit L100-55 in a proportion of 5 wt. % based on the amount of the entire oral composition. A CFIX solution containing no Eudragit L100-55 was prepared as a control. These compositions were orally administered to SD male rats (body weight: 190 to 220 g) fasted for an entire day and night such that CFIX was given in a dose of 2.3 mg/kg. Blood was collected 15 to 480 minutes after administration, and the plasma concentration of CFIX was measured by HPLC. Based on the plasma concentration profile of CFIX thus obtained, the area under the plasma drug concentration-time curve (AUC) and highest drug concentration observed in plasma following administration of an extravascular dose (Cmax) were obtained.
Plots (◯) represent absorption of CFIX in the absence of a polymer, plots (●) represent absorption of CFIX in the presence of Eudragit L100-55 (500 mg/kg), and plots (□) represent absorption of CFIX in the presence of Eudragit RS PO (500 mg/kg). Each plot represents the mean±standard error of 5 experiments.
The experimental procedure was as described in Example 4 except that CDX was simultaneously administered.
FIG. 5 depicts the influence of CDX on the oral administration profile of CFIX after administering the composition (CFIX: 2.3 mg/kg) to rats. Plots (●) represent absorption of CFIX when Eudragit L100-55 (500 mg/kg) and 0 mM CDX were used, plots (▴) represent absorption of CFIX when Eudragit L100-55 (500 mg/kg) and 2 mM CDX were used, and plots (▪) represent absorption of CFIX when Eudragit L100-55 (500 mg/kg) and 10 mM CDX were used. […]

pH of optimum uptake into Caco-2 cells ([1]; pH 5.0 to 7.0)	absorption from rat intestinal loop ([2]; no Eudragit L100-55)	absorption from rat intestinal loop ([2]; with Eudragit L100-55 20 wt. %)	cellular uptake when pH of extracellular fluid is decreased from 6.0 to 5.0 ([1]; Caco-2 cells)	Cmax [3] [µg/mL]	Tmax [3] [min]	AUC(0-t) ([3]; read-out: AUC0-8h of CFIX) [µg·h/mL]	Compound
6.0	about 40%	about 80%	–	–	–	–	CC1=C(C(=O)O)N2C(=O)[C@@H](NC(=O)[C@H](N)c3ccc(O)cc3)[C@H]2SC1 [CDX, cefadroxil]
–	hardly absorbed	about 35%	greatly enhanced	4.13 ± 0.5	43.2 ± 12	10.8 ± 1.48	C=CC1=C(C(=O)O)N2C(=O)[C@@H](NC(=O)/C(=N\OCC(=O)O)c3csc(N)n3)[C@H]2SC1 [CFIX, cefixime]
